Data as given in US20120301551A1, “COMPOUNDS AND COMPOSITIONS FOR TREATING NEURONAL DEATH OR NEUROLOGICAL DYSFUNCTION” (Neurotech Pharmaceuticals Co., Ltd., priority 2005, published 2012).
Entries after “also recorded” stand apart in the source; their conditions may differ.

Key:
[1] = tested on: cortical cell cultures containing neurons and glia; assay: cyclosporine A or calyculin A-induced neuronal cell apoptosis in cortical cell cultures; format: cell-based, mouse; conditions: 20 μM cyclosporine A, 24 hr; 100 μM Vitamin E, 1 μM 2-hydroxy-TTBA, 1 μM 2-hydroxy-TPEA
Description: Mouse cortical cell cultures (DIV 10-12) were exposed to 20 μM cyclosporine A or 10 nM calculin A, alone or with inclusion of 0.3-30 mM Li. Neuronal death was analyzed 24-28 hr later by measuring levels of LDH released into the bathing medium, mean±SEM (n=9-12 culture wells per condition).
Mouse cortical cell cultures (DIV 10-12) were exposed to 20 μM cyclosporine A, alone or with 100 μM Vitamin E, 1 μM 2-hydroxy-TTBA, or 1 μM 2-hydroxy-TPEA. Neuronal death was analyzed 24 hr later by measuring levels of LDH released into the bathing medium, mean±SEM (n=9-12 culture wells per condition).
Cortical cell cultures containing neurons and glia at 10-12 days in vitro (DIV 10-12) were exposed to 20 μM cyclosporine A (CsA) or 10 nM caliculin A (cal A). Neurons underwent widespread apoptosis 24 hr later as previously reported (McDonald et al., 1996; Ko et al., 2000). […] This implies that Li^+ and the neuroprotective drugs (vitamin E, trolox, BAS, CBAS, FBAS, TBAS, PBAS, MBAS, NPAA, NPPAA, 2-Hydroxy-TTBA, and 2-Hydroxy-TPEA) selectively prevent neuronal cell apoptosis and free radical-mediated necrosis, respectively.

[2] = tested on: mixed cortical cell cultures containing neurons and glia; assay: Fe2+-induced free radical neurotoxicity in mixed cortical cell cultures (LDH release); format: cell-based, mouse; conditions: for Fe^2+-induced free radical neurotoxicity, effect in words: 50 μM Fe^2+, 24 hr, 2-Hydroxy-TTBA or 2-Hydroxy-TPEA at doses as low as 0.3 μM, vitamin E at higher doses, Li^+ 10 mM (legend 5 mM); for Fe^2+-induced neuronal death (oxidative stress), effect in words: FIG. 5A: 30 μM Fe^2+, 24 h, 1 μM 2-hydroxy TTBA (submicromolar), 5 mM Li^+; for IC50: Mus musculus, Neuron, 50 μM FeCl2, neuronal death 24 hr later (LDH), read-out: IC50 (50% protection against Fe^2+-induced free radical neurotoxicity)
Description: (§1) Mouse cortical cell cultures (DIV 11-15) were exposed to 50 μM Fe^2+ or 10 mM BSO, alone or with inclusion of 5 mM Li^+. Neuronal death was analyzed 24 hr later by measuring levels of LDH released into the bathing medium, mean±SEM (n=9-12 culture wells per condition).
Mouse cortical cell cultures (DIV 11-15) were exposed to 30 μM Fe^2+ or 10 mM BSO, alone or in the presence of 1 μM 2-hydroxy TTBA, 10-100 μM vitamin E, or 5 mM Li^+.
(§2) For mixed neuron-glia culture, mouse cerebral cortices were removed from brains of the 11-15 day-old-fetal mice (E11-15), gently triturated and plated on 24 well plates (2×10^5 cells/plate) precoated with 100 μg/ml poly-D-lysine and 4 pg/ml laminin. Cultures were maintained at 37° C. in a humidified 5% CO2 atmosphere.
After 7-8 days in vitro (DIV 7-8), 10 μM cytosine arabinofuranoside (Ara-C) was included to halt overgrowth of glia. The drug treatment was carried on DIV 11-15 cortical cell culture.
Oxidative stress was induced by exposing mixed cortical cell cultures containing neurons and glia (DIV 11-15) to 50 μM FeCl2, a hydroxyl radical-producing transition metal via a Fenton reaction, or 10 mM DL-buthionine-[S,R]-sulfoximine (BSO), a glutathione depleting agent.

[3] = tested on: mixed cortical cell cultures containing neurons and glia; assay: BSO-induced free radical neurotoxicity in mixed cortical cell cultures (LDH release); format: cell-based, mouse; conditions: for BSO-induced free radical neurotoxicity, effect in words: 10 mM BSO, 24 hr, 2-Hydroxy-TTBA or 2-Hydroxy-TPEA at doses as low as 0.3 μM, Li^+ 10 mM (legend 5 mM); for BSO-induced neuronal death (oxidative stress), effect in words: FIG. 5A: 10 mM BSO, 24 h, 1 μM 2-hydroxy TTBA (submicromolar), 5 mM Li^+
Description: Mouse cortical cell cultures (DIV 11-15) were exposed to 10 mM BSO, alone or with indicated doses of 2-Hydroxy-TTBA or 2-Hydroxy-TPEA. Neuronal death was analyzed 24 hr later by measuring levels of LDH released into the bathing medium, mean±SEM (n=9-12 culture wells per condition). *, Significant difference from BSO alone, p<0.05 using ANOVA and Student-Newman-Keuls test.
as §1
Mouse cortical cell cultures (DIV 11-15) were exposed to 30 μM Fe^2+ or 10 mM BSO, alone or in the presence of 1 μM 2-hydroxy TTBA, 10-100 μM vitamin E, or 5 mM Li^+. Neuronal death was analyzed 24 h later by measuring LDH efflux in the bathing media (mean±SEM, n=12). *, Significant difference from the relevant control (Fe^2+ or BSO alone), p<0.05 using ANOVA and Student-Newman-Keuls test.
as §2, with “atmosphere. Plating media consist of Eagles minimal essential media (MEM, Earles salts, supplied glutamine-free) supplemented with 5% horse serum, 5% fetal bovine serum, 26.5 mM bicarbonate, 2 mM glutamine, and 21 mM glucose.” for “atmosphere.”
After 7-8 days in vitro (DIV 7-8), 10 μM cytosine arabinofuranoside (Ara-C) was included to halt overgrowth of glia. The drug treatment was carried on DIV 11-15 cortical cell culture. Overall neuronal cell injury was assessed by measuring amount of lactate dehydrogenase (LDH) released into the bathing medium 24 hr after neurotoxic insults as previously described (Koh and Choi, J Neurosci Methods 20:83-90, 1987).
Oxidative stress was induced by exposing mixed cortical cell cultures containing neurons and glia (DIV 11-15) to 50 μM FeCl2, a hydroxyl radical-producing transition metal via a Fenton reaction, or 10 mM DL-buthionine-[S,R]-sulfoximine (BSO), a glutathione depleting agent. Widespread neuronal death was observed 24 hours later. […] Administration of vitamin E prevented Fe^2+-induced free radical neurotoxicity at higher doses. This implies that 2-Hydroxy-TTBA or 2-Hydroxy-TPEA is a potent neuroprotectant against oxidative stress.

[4] = tested on: C57/BL6 mice; assay: microglia activation in MPTP mouse model of Parkinson's disease (CD11b); format: in vivo; conditions: 50 mg/kg intraperitoneal, MPTP 40 mg/kg s.c., two days
Description: MPTP (40 mg/kg) was subcutaneously injected into C57/BL6 mice (male/8 week-old). Some of the mice were administered with 50 mg/kg of chemical 01 through intraperitoneal injection 30 minutes before the injection of MPTP everyday. Two days later, brain tissue was extracted and immunostained with CD11b. After reaction, DAB (diaminobenzidine) was used for chromograph, and then the activation degree of microglia (a marker of inflammation in brain disease model) was evaluated with optical microscope (FIG. 14E).

SMILES | cyclosporine A-induced neuronal cell apoptosis, effect in words [1] | Fe^2+-induced free radical neurotoxicity, effect in words [2] | Fe^2+-induced neuronal death (oxidative stress), effect in words ([2]; listed as 2-hydroxy TTBA) | Fe^2+-induced neuronal death (oxidative stress), effect in words ([2]; listed as 2-hydroxy-TTBA) | IC50 [2] | neuroprotective effect against Fe^2+-induced oxidative neuronal death relative to vitamin E ([2]; higher than vitamin E) | BSO-induced free radical neurotoxicity, effect in words [3] | BSO-induced neuronal death (oxidative stress), effect in words ([3]; listed as 2-hydroxy TTBA) | BSO-induced neuronal death (oxidative stress), effect in words ([3]; listed as 2-hydroxy-TTBA) | activity of microglia caused by MPTP [4]
O=C(O)c1cc(NCc2c(F)c(F)c(C(F)(F)F)c(F)c2F)ccc1O [2-Hydroxy-TTBA, 2-hydroxy-5-(2,3,5,6-tetrafluoro-4-trifluoromethyl-benzylamino)-benzoic acid] | not attenuated; also recorded: do not attenuate | nearly completely blocked | prevents oxidative stress | completely blocked | 110 nM | 220 times | nearly completely blocked | prevents oxidative stress | completely blocked | 
O=C(O)c1cc(NCCc2ccc(C(F)(F)F)cc2)ccc1O [chemical 01, 2-Hydroxy-5-[2-(4-trifluoromethyl-phenyl)-ethylamino]-benzoic acid] | not attenuated; also recorded: do not attenuate | nearly completely blocked |  |  | 99 nM |  | nearly completely blocked |  |  | decreased
